Assay results taken from patent US20260132132A1, “3A,4,5,6-TETRAHYDRO-1 H-PYRAZOLO[3,4-C]PYRIDIN-7(7AH)-ONE DERIVATIVES AS FACTOR XIIA INHIBITORS” (KALVISTA PHARMACEUTICALS LIMITED, priority 2022, published 2026).

How the values were obtained:
[1] = biological target: T1, Human Factor XIIa (hFXIIa) (Homo sapiens, UniProt P00748); assay: Determination of Human Factor XIIa (hFXIIa) inhibition, fluorogenic substrate IC50 assay; type: biochemical; settings: fluorogenic substrate H-DPro-Phe-Arg-AFC at Km, 25° C., read-out: Human FXIIa IC50
T1 construct: purchased Enzyme Research Laboratories
T1 sequence (P00748 373-615 limits assumed): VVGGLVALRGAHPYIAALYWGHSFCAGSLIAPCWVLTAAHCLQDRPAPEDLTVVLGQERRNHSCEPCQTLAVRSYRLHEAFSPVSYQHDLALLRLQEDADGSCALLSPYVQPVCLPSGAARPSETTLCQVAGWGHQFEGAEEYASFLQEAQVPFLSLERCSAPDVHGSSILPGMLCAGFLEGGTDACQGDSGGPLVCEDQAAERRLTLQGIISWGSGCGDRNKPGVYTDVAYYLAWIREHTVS
T1 sequence (P00748 20-372 partner limits assumed): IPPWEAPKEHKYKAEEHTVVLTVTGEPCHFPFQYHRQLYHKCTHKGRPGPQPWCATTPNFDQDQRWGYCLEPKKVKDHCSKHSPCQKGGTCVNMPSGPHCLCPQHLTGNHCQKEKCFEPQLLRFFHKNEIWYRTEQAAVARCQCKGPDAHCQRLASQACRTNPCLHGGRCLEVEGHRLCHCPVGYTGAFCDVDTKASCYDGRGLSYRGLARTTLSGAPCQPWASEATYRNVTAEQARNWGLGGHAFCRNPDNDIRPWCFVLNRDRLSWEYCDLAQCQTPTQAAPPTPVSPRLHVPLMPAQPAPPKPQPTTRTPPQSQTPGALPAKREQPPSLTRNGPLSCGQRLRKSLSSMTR
Method: Determination of Human Factor XIIa (hFXIIa) inhibition
The Km for the cleavage of the substrate by hFXIIa was determined by standard transformation of the Michaelis-Menten equation, with subsequent inhibition assays performed at substrate Km concentration.

FXa = FXa (Homo sapiens, UniProt P00742); assay: Related protease inhibition: FXa, fluorogenic substrate; type: biochemical; settings: fluorogenic substrate at Km, 25° C.; H1-H3 = % activity at 40 μM
Method: Human serine protease enzyme Plasma Kallikrein, KLK1, FXa, Plasmin, Thrombin and Trypsin were assayed for enzymatic activity using an appropriate fluorogenic substrate at Km concentration, FXIa at fixed substrate concentration of 100 μM and various concentrations of the test compound.

FXa, sequence (P00742 235-488 limits assumed): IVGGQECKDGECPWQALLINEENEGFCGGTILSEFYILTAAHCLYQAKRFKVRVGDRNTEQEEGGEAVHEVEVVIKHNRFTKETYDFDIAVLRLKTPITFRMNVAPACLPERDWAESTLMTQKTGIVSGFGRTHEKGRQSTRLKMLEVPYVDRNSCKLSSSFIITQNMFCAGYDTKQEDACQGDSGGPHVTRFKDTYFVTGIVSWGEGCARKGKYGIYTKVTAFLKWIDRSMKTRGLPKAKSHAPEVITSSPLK
FXa, sequence (P00742 41-179 partner limits assumed): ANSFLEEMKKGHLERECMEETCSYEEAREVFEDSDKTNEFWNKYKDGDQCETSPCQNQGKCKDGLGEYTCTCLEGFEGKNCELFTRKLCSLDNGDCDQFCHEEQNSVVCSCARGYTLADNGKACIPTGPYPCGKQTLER

SMILES | IC50 [1] | IC50 (FXa)
Cc1cc(CNC(=O)c2nn(-c3cccc(Cl)c3)c3c2CCN(c2ccc4c(c2)C(=O)N(CC(N)=O)CCO4)C3=O)nn1C [Example 1393, 6-(4-(2-amino-2-oxoethyl)-5-oxo-2,3,4,5-tetrahydrobenzo[f][1,4]oxazepin-7-yl)-1-(3-chlorophenyl)-N-((1,5-dimethyl-1H-pyrazol-3-yl)methyl)-7-oxo-4,5,6,7-tetrahydro-1H-pyrazolo[3,4-c]pyridine-3-carboxamide] | 10 to 100 nM | 1000 to 3000 nM
Cc1cc(CNC(=O)c2nn(-c3cccc(Cl)c3)c3c2CN(c2ccc4c(c2)CN(CCO)CC4)C3=O)nn1C [Example 4001, 1-(3-Chlorophenyl)-N-[(1,5-dimethylpyrazol-3-yl)methyl]-5-[2-(2-hydroxyethyl)-3,4-dihydro-1H-isoquinolin-7-yl]-6-oxo-4H-pyrrolo[3,4-c]pyrazole-3-carboxamide] | 3000 to 10000 nM | > 40000 nM
O=C(Cn1nc(-c2cccc(Cl)c2)c2c1CCN(c1ccc3c(c1)CN(CCO)CC3)C2=O)NCC1CC1 [Example 4002, 2-[3-(3-Chlorophenyl)-5-[2-(2-hydroxyethyl)-3,4-dihydro-1H-isoquinolin-7-yl]-4-oxo-6,7-dihydropyrazolo[4,3-c]pyridin-1-yl]-N-(cyclopropylmethyl) acetamide] | 1000 to 3000 nM | > 40000 nM
CCNC(=O)c1nn(-c2cccc(Cl)c2)c2c1CCN(c1cccc(N3CC4(CC4)CC3=O)c1)C2=O [Example 1389, 1-(3-chlorophenyl)-N-ethyl-7-oxo-6-(3-(6-oxo-5-azaspiro[2.4]heptan-5-yl)phenyl)-4,5,6,7-tetrahydro-1H-pyrazolo[3,4-c]pyridine-3-carboxamide] | 10000 to 40000 nM | > 40000 nM
Cc1ccncc1CNC(=O)c1nn(-c2cccc(C(F)(F)F)c2)c2c1CCN(c1ccc3c(c1)CN(CCO)CC3)C2=O [Example 2009, 6-(2-(2-hydroxyethyl)-1,2,3,4-tetrahydroisoquinolin-7-yl)-N-((4-methylpyridin-3-yl)methyl)-7-oxo-1-(3-(trifluoromethyl)phenyl)-4,5,6,7-tetrahydro-1H-pyrazolo[3,4-c]pyridine-3-carboxamide] | 100 to 300 nM | > 40000 nM
O=C(NCC1CC1)c1nn(-c2cccc(Cl)c2)c2c1CCN(c1cc(F)c3c(c1)CN(CCO)CC3)C2=O [Example 1122, 1-(3-Chlorophenyl)-N-(cyclopropylmethyl)-6-(5-fluoro-2-(2-hydroxyethyl)-1,2,3,4-tetrahydroisoquinolin-7-yl)-7-oxo-4,5,6,7-tetrahydro-1H-pyrazolo[3,4-c]pyridine-3-carboxamide] | 100 to 300 nM | > 40000 nM
O=C(NCC1CC1)c1nn(-c2cccc(Cl)c2)c2c1CCN(c1cccc(N3CCCCC3=O)c1)C2=O [Example 1285, 1-(3-chlorophenyl)-N-(cyclopropylmethyl)-7-oxo-6-(3-(2-oxopiperidin-1-yl)phenyl)-4,5,6,7-tetrahydro-1H-pyrazolo[3,4-c]pyridine-3-carboxamide] | 1000 to 3000 nM | > 40000 nM
COC(=O)C(NC(=O)c1nn(-c2cccc(Cl)c2)c2c1CCN(c1ccc3c(c1)C(=O)N(C)CC3)C2=O)c1cccnc1 (centres unmarked) [Example 1325, methyl 2-(1-(3-chlorophenyl)-6-(2-methyl-1-oxo-1,2,3,4-tetrahydroisoquinolin-7-yl)-7-oxo-4,5,6,7-tetrahydro-1H-pyrazolo[3,4-c]pyridine-3-carboxamido)-2-(pyridin-3-yl)acetate] | 100 to 300 nM | 1000 to 3000 nM
CCN1Cc2cc(N3CCc4c(C(=O)NCc5cnccc5C)nn(-c5cccc(Cl)c5)c4C3=O)ccc2[C@@H](C)C1 [Example 1158, (R)-1-(3-chlorophenyl)-6-(2-ethyl-4-methyl-1,2,3,4-tetrahydroisoquinolin-7-yl)-N-((4-methylpyridin-3-yl)methyl)-7-oxo-4,5,6,7-tetrahydro-1H-pyrazolo[3,4-c]pyridine-3-carboxamide] | 10 to 100 nM | 10000 to 40000 nM

Next, values leading:

IC50 [1] | IC50 (FXa) | SMILES
300 to 1000 nM | 10000 to 40000 nM | C[C@@H](CO)NC(=O)c1nn(-c2cccc(Cl)c2)c2c1CCN(c1ccc3c(c1)C(=O)N(C)CC3)C2=O [Example 1344, (S)-1-(3-chlorophenyl)-N-(1-hydroxypropan-2-yl)-6-(2-methyl-1-oxo-1,2,3,4-tetrahydroisoquinolin-7-yl)-7-oxo-4,5,6,7-tetrahydro-1H-pyrazolo[3,4-c]pyridine-3-carboxamide]
1000 to 3000 nM | 10000 to 40000 nM | CN1CCc2ccc(N3CCc4c(C(=O)NC5(C(=O)O)CC5)nn(-c5cccc(Cl)c5)c4C3=O)cc2C1=O [Example 1361, 1-(1-(3-chlorophenyl)-6-(2-methyl-1-oxo-1,2,3,4-tetrahydroisoquinolin-7-yl)-7-oxo-4,5,6,7-tetrahydro-1H-pyrazolo[3,4-c]pyridine-3-carboxamido)cyclopropane-1-carboxylic acid]
100 to 300 nM | > 40000 nM | CN1CCc2ccc(N3CCc4c(C(=O)NCc5cc(C6CC6)n[nH]5)nn(-c5cccc(Cl)c5)c4C3=O)cc2C1=O [Example 1231, 1-(3-chlorophenyl)-N-((3-cyclopropyl-1H-pyrazol-5-yl)methyl)-6-(2-methyl-1-oxo-1,2,3,4-tetrahydroisoquinolin-7-yl)-7-oxo-4,5,6,7-tetrahydro-1H-pyrazolo[3,4-c]pyridine-3-carboxamide]
300 to 1000 nM | > 40000 nM | CN1CCc2ccc(N3CCc4c(C(=O)N[C@@H]5CCOC5)nn(-c5cccc(Cl)c5)c4C3=O)cc2C1=O [Example 1338, (R)-1-(3-chlorophenyl)-6-(2-methyl-1-oxo-1,2,3,4-tetrahydroisoquinolin-7-yl)-7-oxo-N-(tetrahydrofuran-3-yl)-4,5,6,7-tetrahydro-1H-pyrazolo[3,4-c]pyridine-3-carboxamide]
10 to 100 nM | 3000 to 10000 nM | Cc1cc(CNC(=O)c2nn(-c3cccc(Cl)c3)c3c2CCN(c2ccc4c(c2)C(=O)N(CC(F)F)CCO4)C3=O)n[nH]1 [Example 1382, 1-(3-chlorophenyl)-6-(4-(2,2-difluoroethyl)-5-oxo-2,3,4,5-tetrahydrobenzo[f][1,4]oxazepin-7-yl)-N-((5-methyl-1H-pyrazol-3-yl)methyl)-7-oxo-4,5,6,7-tetrahydro-1H-pyrazolo[3,4-c]pyridine-3-carboxamide]
100 to 300 nM | > 40000 nM | O=C(NCc1ccn(C2CC2)n1)c1nn(-c2cccc(Cl)c2)c2c1CCN(c1ccc3c(c1)C(=O)N(CCO)CC3)C2=O [Example 1355, 1-(3-chlorophenyl)-N-((1-cyclopropyl-1H-pyrazol-3-yl)methyl)-6-(2-(2-hydroxyethyl)-1-oxo-1,2,3,4-tetrahydroisoquinolin-7-yl)-7-oxo-4,5,6,7-tetrahydro-1H-pyrazolo[3,4-c]pyridine-3-carboxamide]
10 to 100 nM | > 40000 nM | Cc1cc(C)c(CNC(=O)c2nn(-c3cccc(Cl)c3)c3c2CCN(c2ccc4c(c2)C(=O)N(CCO)CC4)C3=O)cn1 [Example 1256, 1-(3-chlorophenyl)-N-((4,6-dimethylpyridin-3-yl)methyl)-6-(2-(2-hydroxyethyl)-1-oxo-1,2,3,4-tetrahydroisoquinolin-7-yl)-7-oxo-4,5,6,7-tetrahydro-1H-pyrazolo[3,4-c]pyridine-3-carboxamide]
